In brackets after ≈: the same amount, converted by molar mass.
What was measured:
Staphylococcus aureus [1] = experiment: Antibacterial activity against methicillin-resistant Staphylococcus aureus 43300 by CLSI method; format: functional
Staphylococcus aureus [2] = experiment: Antibacterial activity against Staphylococcus aureus ATCC 25923 by CLSI method; format: functional
Enterococcus faecalis = experiment: Antibacterial activity against Enterococcus faecalis ATCC 29212 by CLSI method; format: functional
[3] = tested on: Staphylococcus epidermidis; experiment: Antibacterial activity against Staphylococcus epidermidis ATCC 12228 by CLSI method; format: functional
Staphylococcus aureus [4] = experiment: Antibacterial activity against Staphylococcus aureus ATCC 700699 Mu 50 by CLSI method relative to Linezolid; format: functional
Staphylococcus aureus [5] = experiment: Antibacterial activity against Staphylococcus aureus ATCC 29213 by CLSI method relative to Linezolid; format: functional
CYP3A4 = CYP3A4 (Homo sapiens, UniProt P08684); experiment: Inhibition of human recombinant CYP3A4 at 10 uM by fluorimetric analysis; format: ADME
CYP2C9 = CYP2C9 (Homo sapiens, UniProt P11712); experiment: Inhibition of recombinant human cytochrome P450-2C9 at 10 uM by fluorimetric analysis; format: ADME
Staphylococcus aureus [6] = experiment: Antibacterial activity against Staphylococcus aureus ATCC 13709 Smith by CLSI method relative to Linezolid; format: functional
Staphylococcus aureus [7] = experiment: Antibacterial activity against Staphylococcus aureus ATCC 49775 PVL positive by CLSI method relative to Linezolid; format: functional
[8] = tested on: Staphylococcus epidermidis; experiment: Antibacterial activity against Staphylococcus epidermidis ATCC 12228 by CLSI method relative to Linezolid; format: functional
Staphylococcus aureus [9] = experiment: Antibacterial activity against Staphylococcus aureus FDA 209P by CLSI method relative to Linezolid; format: functional
CYP2C19 = CYP2C19 (Homo sapiens, UniProt P33261); experiment: Inhibition of human recombinant CYP2C19 at 10 uM by fluorimetric analysis; format: ADME
Enterococcus faecium = experiment: Antibacterial activity against Enterococcus faecium 06076VRE by CLSI method relative to Linezolid; format: functional
CYP1A2 = molecular target: T1, CYP1A2 (Homo sapiens, UniProt P05177); experiment: Inhibition of human recombinant CYP1A2 at 10 uM by fluorimetric analysis; format: ADME
T1 sequence (P05177 whole entry): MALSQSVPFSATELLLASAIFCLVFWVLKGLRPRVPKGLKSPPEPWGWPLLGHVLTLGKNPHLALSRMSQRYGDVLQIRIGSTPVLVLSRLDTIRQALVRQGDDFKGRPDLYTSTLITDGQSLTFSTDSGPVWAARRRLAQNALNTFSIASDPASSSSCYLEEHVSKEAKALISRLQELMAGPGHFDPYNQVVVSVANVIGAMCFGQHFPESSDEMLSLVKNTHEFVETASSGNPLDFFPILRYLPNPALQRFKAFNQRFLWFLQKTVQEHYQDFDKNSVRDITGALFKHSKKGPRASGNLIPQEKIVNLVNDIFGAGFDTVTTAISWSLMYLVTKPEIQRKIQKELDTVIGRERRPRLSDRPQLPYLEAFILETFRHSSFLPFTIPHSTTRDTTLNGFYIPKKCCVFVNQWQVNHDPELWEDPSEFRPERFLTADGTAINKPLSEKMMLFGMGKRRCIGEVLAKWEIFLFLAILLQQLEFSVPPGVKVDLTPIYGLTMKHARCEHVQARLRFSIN

[10] = tested on: Staphylococcus epidermidis; experiment: Antibacterial activity against Staphylococcus epidermidis ATCC 14990 by CLSI method relative to Linezolid; format: functional
Streptococcus pyogenes = experiment: Antibacterial activity against Streptococcus pyogenes ATCC 19615 by CLSI method relative to Linezolid; format: functional
Streptococcus pneumoniae = experiment: Antibacterial activity against Streptococcus pneumoniae ATCC 49619 by CLSI method relative to Linezolid; format: functional
CYP2D6 = CYP2D6 (Homo sapiens, UniProt P10635); experiment: Inhibition of human recombinant CYP2D6 at 10 uM by fluorimetric analysis; format: ADME
Sequence of CYP2D6 (P10635 whole entry): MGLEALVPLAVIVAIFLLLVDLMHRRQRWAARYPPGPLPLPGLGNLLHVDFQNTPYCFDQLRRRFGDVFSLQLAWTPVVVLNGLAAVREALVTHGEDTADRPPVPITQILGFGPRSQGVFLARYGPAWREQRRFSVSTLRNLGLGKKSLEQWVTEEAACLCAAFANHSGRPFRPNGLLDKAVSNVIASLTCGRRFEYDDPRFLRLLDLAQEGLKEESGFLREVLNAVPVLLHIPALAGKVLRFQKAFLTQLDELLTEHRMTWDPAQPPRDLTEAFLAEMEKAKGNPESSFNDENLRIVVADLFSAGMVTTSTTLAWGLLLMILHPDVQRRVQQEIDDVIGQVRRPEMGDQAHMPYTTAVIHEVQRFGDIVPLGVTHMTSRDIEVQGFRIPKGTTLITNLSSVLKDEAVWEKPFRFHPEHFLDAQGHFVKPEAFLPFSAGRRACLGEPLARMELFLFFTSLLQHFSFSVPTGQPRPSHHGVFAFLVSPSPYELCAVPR

Sequence of CYP2C9 (P11712 whole entry): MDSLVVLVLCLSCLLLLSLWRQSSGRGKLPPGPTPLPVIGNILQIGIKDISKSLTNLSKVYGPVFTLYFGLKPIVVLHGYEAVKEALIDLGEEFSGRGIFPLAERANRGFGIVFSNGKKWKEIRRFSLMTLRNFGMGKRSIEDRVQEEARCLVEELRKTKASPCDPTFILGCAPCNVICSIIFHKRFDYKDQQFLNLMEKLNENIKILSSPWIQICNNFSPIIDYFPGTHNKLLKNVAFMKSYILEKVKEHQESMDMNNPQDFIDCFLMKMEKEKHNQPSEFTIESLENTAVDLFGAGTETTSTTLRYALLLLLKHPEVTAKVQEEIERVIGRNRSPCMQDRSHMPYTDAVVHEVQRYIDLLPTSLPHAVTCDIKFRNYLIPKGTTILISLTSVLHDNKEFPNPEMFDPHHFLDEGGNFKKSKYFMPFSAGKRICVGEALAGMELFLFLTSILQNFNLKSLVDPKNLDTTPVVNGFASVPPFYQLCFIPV
Sequence of CYP2C19 (P33261 whole entry): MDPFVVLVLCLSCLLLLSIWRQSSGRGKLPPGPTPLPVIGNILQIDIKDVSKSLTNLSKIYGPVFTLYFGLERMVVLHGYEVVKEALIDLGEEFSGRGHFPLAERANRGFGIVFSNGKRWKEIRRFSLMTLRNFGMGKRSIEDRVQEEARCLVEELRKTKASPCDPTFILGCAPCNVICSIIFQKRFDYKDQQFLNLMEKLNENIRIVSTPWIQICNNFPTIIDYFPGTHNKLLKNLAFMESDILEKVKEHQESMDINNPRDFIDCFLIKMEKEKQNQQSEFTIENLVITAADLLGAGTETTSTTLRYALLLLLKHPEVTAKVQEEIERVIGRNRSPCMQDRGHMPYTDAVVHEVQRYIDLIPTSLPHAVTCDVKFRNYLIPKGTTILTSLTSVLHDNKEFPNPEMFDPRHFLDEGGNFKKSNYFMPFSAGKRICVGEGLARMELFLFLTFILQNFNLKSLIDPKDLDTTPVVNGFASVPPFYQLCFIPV
Sequence of CYP3A4 (P08684 whole entry): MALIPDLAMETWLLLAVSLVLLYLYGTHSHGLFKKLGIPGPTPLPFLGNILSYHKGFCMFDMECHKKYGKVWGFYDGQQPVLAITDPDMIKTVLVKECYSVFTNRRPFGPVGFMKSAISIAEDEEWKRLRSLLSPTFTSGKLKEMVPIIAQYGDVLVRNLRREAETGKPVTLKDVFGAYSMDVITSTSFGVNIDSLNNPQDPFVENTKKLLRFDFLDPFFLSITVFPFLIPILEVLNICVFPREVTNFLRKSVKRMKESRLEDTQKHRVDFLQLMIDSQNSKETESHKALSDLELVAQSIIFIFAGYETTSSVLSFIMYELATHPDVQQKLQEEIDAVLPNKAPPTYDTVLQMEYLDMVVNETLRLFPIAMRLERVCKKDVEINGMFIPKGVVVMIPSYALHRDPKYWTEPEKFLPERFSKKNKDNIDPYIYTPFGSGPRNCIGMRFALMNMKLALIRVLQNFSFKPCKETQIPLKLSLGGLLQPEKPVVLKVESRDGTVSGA

CC(=O)NC[C@H]1CN(c2ccc(-c3ccc(-c4nnc5ncccn45)c(F)c3)c(F)c2)C(=O)O1
MIC (Staphylococcus aureus [1]): 0.125 µg/mL (≈ 0.269 µM) | MIC (Staphylococcus aureus [2]): 0.5 µg/mL (≈ 1.08 µM) | MIC (Enterococcus faecalis): 0.5 µg/mL (≈ 1.08 µM) | MIC [3]: 0.5 µg/mL (≈ 1.08 µM)

CC(=O)NC[C@H]1CN(c2ccc(-c3ccc(-c4nnc5ncccn45)nc3)c(F)c2)C(=O)O1
MIC (Staphylococcus aureus [1]): 0.125 µg/mL (≈ 0.279 µM) | MIC (Staphylococcus aureus [2]): 0.25 µg/mL (≈ 0.559 µM) | MIC (Enterococcus faecalis): 0.5 µg/mL (≈ 1.12 µM) | MIC [3]: 0.5 µg/mL (≈ 1.12 µM)

CC(=O)NC[C@H]1CN(c2ccc(-c3cccc(-c4nnc5ncccn45)c3)c(F)c2)C(=O)O1
MIC (Staphylococcus aureus [1]): 1 µg/mL (≈ 2.24 µM) | MIC (Staphylococcus aureus [2]): 4 µg/mL (≈ 8.96 µM) | MIC (Enterococcus faecalis): 4 µg/mL (≈ 8.96 µM) | MIC [3]: 4 µg/mL (≈ 8.96 µM)

CC(=O)NC[C@H]1CN(c2ccc(N3CCOCC3)c(F)c2)C(=O)O1 [LINEZOLID]
MIC [3]: 1 µg/mL (≈ 2.96 µM)

CC(=O)NC[C@H]1CN(c2cccc(F)c2)C(=O)O1
MIC (Staphylococcus aureus [1]): 16 µg/mL (≈ 63.4 µM) | MIC (Staphylococcus aureus [2]): > 16 µg/mL | MIC (Enterococcus faecalis): > 16 µg/mL | MIC [3]: 16 µg/mL (≈ 63.4 µM)

COc1ccc(-c2ccc(N3C[C@H](CNC(C)=O)OC3=O)cc2F)cc1-c1nnc2ncccn12
MIC (Staphylococcus aureus [1]): 8 µg/mL (≈ 16.8 µM) | MIC (Staphylococcus aureus [2]): 16 µg/mL (≈ 33.6 µM) | MIC (Enterococcus faecalis): 16 µg/mL (≈ 33.6 µM) | MIC [3]: > 16 µg/mL

CC(=O)NC[C@H]1CN(c2ccc(-c3csc(-c4nnc5ncccn45)c3)c(F)c2)C(=O)O1
fold change (FC) (Staphylococcus aureus [4]): 4 | fold change (FC) (Staphylococcus aureus [5]): 4 | inhibition at 10 µM (CYP3A4): 37.7% | inhibition at 10 µM (CYP2C9): 40.9% | fold change (FC) (Staphylococcus aureus [6]): 4 | fold change (FC) (Staphylococcus aureus [7]): 4 | fold change (FC) [8]: 4 | fold change (FC) (Staphylococcus aureus [9]): 4 | MIC (Staphylococcus aureus [1]): 0.125 µg/mL (≈ 0.276 µM) | inhibition at 10 µM (CYP2C19): 36.2% | fold change (FC) (Enterococcus faecium): 4 | MIC (Staphylococcus aureus [2]): 0.125 µg/mL (≈ 0.276 µM) | inhibition at 10 µM (CYP1A2): 4.3% | MIC (Enterococcus faecalis): 0.06 µg/mL (≈ 0.133 µM) | fold change (FC) [10]: 4 | fold change (FC) (Streptococcus pyogenes): 4 | MIC [3]: 0.25 µg/mL (≈ 0.553 µM) | fold change (FC) (Streptococcus pneumoniae): 4 | inhibition at 10 µM (CYP2D6): 5.6%
